From publication PMC9569447 (International Journal of Molecular Sciences, 2022)
Where “and” joins values, the source holds several entries; their conditions need not be identical. Equal values may be shown once. Marks after values point to notes of the source that are not given here. Numbered stars: 1 amine (or outer) side, 2 acyl side, 3 side chain; on linkers, the order of the positions; unused ones are H or OH. Bridge positions count the residues as written; N and C are the ends. Square brackets hold non-standard residues; d marks the D form. Side chains are listed from the residue outwards. Peptide text beside a SMILES is read from it. * marks the point of attachment. PEG8 = NCCOCCOCCOCCOCCOCCOCCOCCOCCC(=O)O; Palmitoyl = CCCCCCCCCCCCCCCC(=O)*; hCys = N[C@@H](CCS)C(=O)O; X1 = O=C(CC[*:2])[*:1]

Tests used:
[1] = tested on: diet-induced obese (DIO) Sprague Dawley rats; assay type: in vivo
Description: Male Sprague Dawley rats were fed 60% HF diet (formula: D12492; Research Diets, Inc; New Brunswick, NJ, USA; 5.21 kcal/g) for 16 weeks prior to the start of the study. Rats were then singly housed in BioDAQ cages (Research Diets, Inc.; New Brunswick, NJ, USA) and allowed to acclimate to their new environment for 10 days. Baseline measures of body weight, food intake and water intake were taken for one week to balance the groups and create feeding pairs. Each group (n = 6 animals/group) averaged 714.47 ± 81.60 g at baseline (Table 3).
Effects of ASK2131 were compared to a vehicle-treated group, OXT-treated group, as well as a pair-fed control group. Three days of baseline measures were taken before subcutaneous treatment administration began on day 4 of the study. Assessments were made to body weight, food intake and water intake. ASK2131 was administered at 50 nmol/kg throughout the entire study period. […] OXT-treated animals were started at 50 nmol/kg dose for two days, followed by 150 nmol/kg, then 300 nmol/kg, until ending at 600 nmol/kg for the remainder of the study.

[2] = tested on: diet-induced obese (DIO) Sprague Dawley rats; assay: Post-treatment serum levels after the 22-day treatment; assay type: in vivo, rat
Method: Cardiac puncture was used to collect blood for analysis 2 h post final injection. Commercially available enzyme-linked immunosorbent assays (ELISA) were used for quantitative assessment of leptin (cat. # EZRL-83K; MilliporeSigma, Burlington, MA, USA), insulin (cat. # EZRMI-13K; MilliporeSigma, Burlington, MA, USA), and adiponectin (cat. # EZRAPD-62K MilliporeSigma, Burlington, MA, USA). Serum samples were diluted 1:500 for the adiponectin ELISA using the sample diluent provided with the kit. All ELISAs were completed following the manufacturers recommendations. Levels of glucose, cholesterol (total, HDL, and calculated LDL), triglycerides, ALT, and AST were determined in the serum on a Modular P chemistry analyzer (Roche Diagnostics, Risch-Rotkreuz, Switzerland) by the University of Washington Nutrition and Obesity Research Center’s Analytic Core (Seattle, WA, USA).

[3] = Pharmacokinetics after subcutaneous administration to rats; settings: sc, 300 nmol/kg
Method: Whole blood samples were immediately centrifuged at 4 °C; separated plasma (~100 uL) was pipetted into micro centrifuge tubes, flash frozen on dry ice, and stored at −80 °C. Quantitative analysis plasma samples were performed by Alturas Analytics (Moscow, ID, USA) via peptide extraction from acidified plasma with acetonitrile followed by LC-MS/MS analysis.

[4] = serum ELISA, after 22 days, mean ± SEM, n = 6 (Oxytocin n = 4)
[5] = serum, 2 h post final injection after 22 days, mean ± SEM, n = 6 (Oxytocin n = 4)
[6] = male, Sprague Dawley, rat, plasma

CCCCCCCCCCCCCCCC(=O)NCCOCCOCCOCCOCCOCCOCCOCCOCCC(=O)NCCCC[C@H](NC(=O)CNC(=O)[C@@H]1CCSCCC(=O)N[C@@H](Cc2ccc(O)cc2)C(=O)N[C@@H]([C@@H](C)CC)C(=O)N[C@@H](CCC(N)=O)C(=O)N[C@@H](CC(N)=O)C(=O)N1)C(=O)NCC(N)=O [ASK2131] (YIQN[hCys]GK([PEG8-Palmitoyl])G-NH2; linker N-5 via X1)
decrease in food intake ([1]; 50 nmol/kg, first 8 days of treatment): 35% | reduction in food intake ([1]; 50 nmol/kg, last 8 days of treatment): 25% | average decline in food intake ([1]; 50 nmol/kg, whole 22-day treatment): 28% | body weight, predicted mean difference (PMD) vs vehicle-treated group ([1]; after 2 days of drug administration, 50 nmol/kg sc, 95% CI −6.52 to −1.15%, p = 0.0011): −3.83% | body weight, predicted mean difference (PMD) vs OXT-treated group ([1]; after 2 days of drug administration, both 50 nmol/kg sc, 95% CI −6.45 to −1.08%, p = 0.0014): −3.77% | Posttreatment body weight ([1]; after 22 days once daily sc, ASK2131 50 nmol/kg, OXT titrated 50 to 600 nmol/kg, n = 6, mean ± SEM): 676 ± 42 g | % change in body weight ([1]; after 22 days vs baseline, once daily sc, ASK2131 50 nmol/kg, OXT titrated 50 to 600 nmol/kg, n = 6, mean ± SEM): −6.6 ± 1.3% and −6.6 ± 1.3 ^c,d % | body weight reduction compared to baseline ([1]; after 22 days, ASK2131 50 nmol/kg sc daily, mean ± standard error): 6.6 ± 1.3% | body weight change, mean difference (MD) vs vehicle ([1]; after 22 days, ASK2131 50 nmol/kg/d, 95% CI −15.6 to −7.4, p < 0.0001): −11.5% | cumulative food intake, mean difference (MD) vs vehicle ([1]; after 22 days, ASK2131 50 nmol/kg/d, 95% CI −1031 to −213.1, p < 0.0008): -621.9 kcal | reduction of food intake compared to baseline ([1]; day 3, 50 nmol/kg/d sc): 39 ± 9% | food intake, predicted mean difference (PMD) vs vehicle-treated group ([1]; day 3, 50 nmol/kg/d sc, 95% CI −80.47 to −11.51%, p = 0.0102): −45.99% | tolerability ([1]; rat, in vivo): well tolerated | water intake ([1]; rat, in vivo): without relevant changes of water intake | body weight reduction (weight loss) vs vehicle at end of treatment ([1]; study completion, 22 days, ASK2131 50 nmol/kg, OXT titrated up to 600 nmol/kg): 11.5% | Calculated LDL ([2]; Calculated LDL = Cholesterol − (HDL + Triglycerides/5), serum after 22 days, mean ± SEM): 15 ± 5 mg/dL | Cholesterol vs. vehicle treated animals ([2]; after 22 days of treatment, result in words): significantly reduced | Insulin [2, 4]: 6.7 ± 1.0 ng/mL | Leptin [2, 4]: 39 ± 9.1 ng/mL | Adiponectin ([2]; serum ELISA, diluted 1:500, after 22 days, mean ± SEM, n = 6 (Oxytocin n = 4)): 62.4 ± 7.3 ng/mL | ALT [2, 5]: 26 ± 2 U/L | AST [2, 5]: 73 ± 8 U/L | Cholesterol [2, 5]: 67 ± 6 ^b mg/dL | Glucose [2, 5]: 237 ± 12 mg/dL | HDL [2, 5]: 21 ± 2 mg/dL | Triglycerides [2, 5]: 182 ± 30 mg/dL | Cmax [3, 6]: 276 nM | Tmax [3, 6]: 4 h | clearance [3, 6]: 1.2 mL/min/kg | Cmax (total maximal plasma concentration) ([3]; male lean Sprague Dawley rats, n = 5 per group, LC-MS/MS): 276 nM | Tmax ([3]; male lean Sprague Dawley rats, n = 5 per group, plasma, LC-MS/MS): 4 h
